Results: US20080070961A1, “Polymorphs of N-(2-acetyl-4,6-dimethylphenyl)-3-{[(3,4 dimethyl-5-isoxazolyl)-amino]sulfonyl}-2-thiophene-carboxamide” (priority 2006, published 2008)
≈ marks a conversion by molar mass, not a printed value. Entries after “also recorded” stand apart in the source; their conditions may differ. Values belong to the compound of their own block, whether it stands above or below them.

How the values were obtained:
[1] = Solubility of Forms A, C and E in ethanol (gravimetric); details: for stability of the forms (order, based on the solubility data): ethanol solubility data; for AVERAGE SOLUBILITY / solubility at 30 min / solubility at 60 min / XRPD of remaining solid after the solubility experiment (form conversion) / relative solubility of the forms: ethanol; for solubility at 30 min / solubility at 60 min: organic solvent or mixture, thermodynamic from solid, AVERAGE SOLUBILITY; for XRPD of remaining solid after the solubility experiment (form conversion) / relative solubility of the forms: various temperatures
Description: (§1) Saturated solutions of this compound in ethanol were prepared and each solution was heated to either 25, 27, 35, 40 or 50° C.' and stirred for 30 minutes. The samples were filtered into a receiving flask and were heated at the same temperatures and stirred for another 30 minutes. Samples were removed from these flasks and were filtered into a tared vial. The remaining solution was heated and stirred for another 30 minutes. Samples were again removed from these flasks and were filtered into another tared vial. The solvents in the tared vials were removed using a rotary evaporator and the weights of the solids in the tared vials were recorded and were used to calculate solubility.
(§2) The solubilitites reported were determined gravimetrically, therefore, fluctuations in the data are possible.

[2] = Grinding experiments (mortar and pestle, XRPD); type: physicochemical
Description: N-(2-acetyl-4,6-dimethylphenyl)-3-{[(3 ,4-dimethyl-5-isoxazolyl)amino]-sulfonyl}-2-thiophenecaboxamide material was ground by hand with a mortar and pestle for 30 sec, 1, 2, and 5 minutes. The samples were then analyzed by XRPD.

[3] = Moisture sorption/desorption; type: physicochemical; details: for XRPD Results after the moisture sorption/desorption experiment: sorption 5 to 95% RH, desorption 95 to 5% RH
Description: The moisture sorption/desorption data was collected on a VT SGA-100 moisture balance system. For sorption isotherms, a sorption range of 5 to 95% relative humidity (RH) and a desorption range of 95 to 5% RH in 10% RH increments were used for analysis. The sample was not dried prior to analysis. Equilibrium criteria used for analysis was less than 0.0100% weight change in 5 minutes with a maximum equilibration time of 3 hours if the weight criterion was not met. Data was not corrected for the initial moisture content of the samples.

[4] = Stress studies (humidity / temperature, XRPD); type: physicochemical
Description: Samples of N-(2-acetyl-4,6-dimethylphenyl)-3-{[(3,4-dimethyl-5-isoxazolyl)amino]-sulfonyl}-2-thiophenecaboxamide were stressed at 22, 58, 75, and 93% RH under ambient temperature for 3 days. One sample was also placed in a 40 ° C. oven for 11 days. Samples of amorphous material were also placed in a 40 ° C. oven for 36 days or in a 70 ° C. oven for 4 days. The solids were then analyzed by XRPD.

[5] = Approximate solubilities of Form A in various solvents at ambient temperature; type: physicochemical; details: for solubility: thermodynamic from solid, approximate
Description: The approximate solubilities were estimated from experiments based on the total solvent used to give a solution. The actual solubilities may be greater than those calculated because of the use of too-large solvent aliquots or a slow rate of dissolution. […] If the solid dissolved before the whole aliquot of solvent was added the solubility is listed as “greater than”.

[6] = Interconversion experiments (slurries of two forms, XRPD); type: physicochemical
Description: Interconversion experiments were carried out by making slurries containing two forms of N-(2-acetyl-4,6-dimethylphenyl)-3 -{[(3,4-dimethyl-5-isoxazolyl)amino]-sulfonyl}-2-thiophenecaboxamide in saturated toluene, methanol/water, or alcohol solutions. The slurries were agitated for various time periods at either ambient temperature or at 45° C. The insoluble solids were recovered by filtration and analyzed using XRPD.

physchem = details: organic solvent or mixture, thermodynamic from solid, AVERAGE SOLUBILITY
Description: as §1, §2

stability of the forms (order, based on the solubility data) [1]: Form A >Form C >Form E
AVERAGE SOLUBILITY ([1]; 25 °C, 30 min): 9.5 mg/mL
AVERAGE SOLUBILITY ([1]; 25 °C, 60 min): 10.6 mg/mL
AVERAGE SOLUBILITY ([1]; 40 °C, 30 min): 17.3 mg/mL
AVERAGE SOLUBILITY ([1]; 40 °C, 60 min): 18.1 mg/mL
solubility at 30 min ([1]; 50 °C, 30 min): 40.8 mg/mL (≈ 91.2 mM)
solubility at 60 min ([1]; 50 °C, 60 min): 36.7 mg/mL (≈ 82 mM)
XRPD of remaining solid after the solubility experiment (form conversion) [1]: conversion to another form did not occur
XRPD Pattern after grinding ([2]; grind time 1 min): A, SS
crystallinity upon grinding ([2]; ground for up to 5 minutes, mortar and pestle): loses some crystallinity
hygroscopicity (based on moisture sorption/desorption data) [3]: non-hygroscopic
Moisture Balance Results: weight loss at 5% RH [3]: <0.1% weight loss at 5% RH,
Moisture Balance Results: total weight gain at 95% RH [3]: <0.1% total weight gain at 95% RH
XRPD Results after the moisture sorption/desorption experiment [3]: remained Form A
form after stress, all conditions of Table 10 ([4]; various conditions (22-93% RH 3 d; 40° C. 11 d)): remained Form A
solubility ([5]; N,N-dimethylformamide, organic solvent or mixture): 250 mg/mL (≈ 559 mM)
solubility ([5]; acetone, organic solvent or mixture): 87 mg/mL (≈ 194 mM)
solubility ([5]; acetonitrile, organic solvent or mixture): 72 mg/mL (≈ 161 mM)
solubility ([5]; dichloromethane, organic solvent or mixture): 135 mg/mL (≈ 302 mM)
solubility ([5]; diethyl ether, organic solvent or mixture): < 9 mg/mL
solubility (in words) ([5]; diethyl other, hexanes, propanol and water): sparingly soluble
solubility ([5]; dimethyl sulfoxide, organic solvent or mixture): 144 mg/mL (≈ 322 mM)
solubility ([5]; ethanol, organic solvent or mixture): 9 mg/mL (≈ 20.1 mM)
solubility ([5]; ethyl acetate, organic solvent or mixture): 21 mg/mL (≈ 46.9 mM)
solubility ([5]; hexanes, organic solvent or mixture): < 9 mg/mL
solubility ([5]; isopropanol, organic solvent or mixture): < 10 mg/mL
solubility ([5]; methanol, organic solvent or mixture): 21 mg/mL (≈ 46.9 mM)
solubility ([5]; propanol, organic solvent or mixture): < 9 mg/mL
solubility ([5]; toluene, organic solvent or mixture): 19 mg/mL (≈ 42.5 mM)
solubility ([5]; water): < 8 mg/mL
SMILES: CC(=O)c1cc(C)cc(C)c1NC(=O)c1sccc1S(=O)(=O)Nc1onc(C)c1C [Form A, N-(2-acetyl-4,6-dimethylphenyl)-3-{[(3,4dimethyl-5-isoxazolyl)-amino]sulfonyl}-2-thiophenecarboxamide]
relative solubility of the forms [1]: less soluble form; also recorded: least soluble

XRPD Results after slurry ([6]; ethanol, 20 days): A + E(min)
XRPD Results after slurry ([6]; ethanol, 27 days): A + pk 4°
XRPD Results after slurry ([6]; toluene RT, 20 days): A, SS
XRPD Results after slurry ([6]; toluene, 45° C., 5 days): A(PO)
SMILES: CC(=O)c1cc(C)cc(C)c1NC(=O)c1sccc1S(=O)(=O)Nc1onc(C)c1C [A vs. E]

XRPD Results after slurry ([6]; toluene, 45° C., 5 days): A + C
SMILES: CC(=O)c1cc(C)cc(C)c1NC(=O)c1sccc1S(=O)(=O)Nc1onc(C)c1C [C vs. E]

XRPD Pattern after grinding ([2]; grind time 2 min): C + E
SMILES: CC(=O)c1cc(C)cc(C)c1NC(=O)c1sccc1S(=O)(=O)Nc1onc(C)c1C [A(PO)]

XRPD Results after slurry ([6]; 1:1 methanol:water, 12 days): A + C, SS
XRPD Results after slurry ([6]; toluene RT, 12 days): A + C
XRPD Results after slurry ([6]; toluene, 45° C., 5 days): A + C
SMILES: CC(=O)c1cc(C)cc(C)c1NC(=O)c1sccc1S(=O)(=O)Nc1onc(C)c1C [A vs. C]

Moisture Balance Results: weight loss at 5% RH [3]: <0.1% weight loss at 5% RH,
XRPD Pattern after stress ([4]; 40° C., 36 d): amorphous
XRPD Pattern after stress ([4]; 70° C., 4 d): a mixture of Forms E and C
XRPD Pattern after stress ([4]; ambient, 92 d (approx. 3 months)): Forms C and E
SMILES: CC(=O)c1cc(C)cc(C)c1NC(=O)c1sccc1S(=O)(=O)Nc1onc(C)c1C [amorphous, N-(2-acetyl-4,6-dimethylphenyl)-3-{[(3,4dimethyl-5-isoxazolyl)-amino]sulfonyl}-2-thiophenecarboxamide]
XRPD Results after the moisture sorption/desorption experiment [3]: remained amorphous; also recorded: does not recrystallize

solubility at 30 min (physchem; 27 °C): 12.7 mg/mL (≈ 28.4 mM)
solubility at 60 min (physchem; 27 °C): 11 mg/mL (≈ 24.6 mM)
solubility at 30 min (physchem; 35 °C): 17.7 mg/mL (≈ 39.5 mM)
solubility at 60 min (physchem; 35 °C): 18.3 mg/mL (≈ 40.9 mM)
solubility at 30 min (physchem; 50 °C): 40.8 mg/mL (≈ 91.2 mM)
solubility at 60 min (physchem; 50 °C): 39.7 mg/mL (≈ 88.7 mM)
hygroscopicity (based on moisture sorption/desorption data) [3]: non-hygroscopic
Moisture Balance Results: weight loss at 5% RH [3]: <0.1% weight loss at 5% RH,
Moisture Balance Results: total weight gain at 95% RH [3]: 0.15% total weight gain at 95% RH
XRPD Results after the moisture sorption/desorption experiment [3]: remained Form E
weight loss or gain during the moisture sorption/desorption experiment ([3]; whole experiment): < 0.2%
SMILES: CC(=O)c1cc(C)cc(C)c1NC(=O)c1sccc1S(=O)(=O)Nc1onc(C)c1C [Form E, N-(2-acetyl-4,6-dimethylphenyl)-3-{[(3,4dimethyl-5-isoxazolyl)-amino]sulfonyl}-2-thiophenecarboxamide]

stability of the forms (order, based on the solubility data) [1]: Form A >Form C >Form E
solubility at 30 min ([1]; 25 °C, 30 min): 16.1 mg/mL (≈ 36 mM)
solubility at 60 min ([1]; 25 °C, 60 min): 13.2 mg/mL (≈ 29.5 mM)
solubility at 30 min ([1]; 40 °C, 30 min): 28.3 mg/mL (≈ 63.2 mM)
solubility at 60 min ([1]; 40 °C, 60 min): 27.4 mg/mL (≈ 61.2 mM)
AVERAGE SOLUBILITY ([1]; 50 °C, 30 min): 35.6 mg/mL
AVERAGE SOLUBILITY ([1]; 50 °C, 60 min): 45.1 mg/mL
relative solubility of the forms [1]: higher solubility than Form A
XRPD Pattern after grinding ([2]; grind time 2 min): remained Form C
hygroscopicity (based on moisture sorption/desorption data) [3]: non-hygroscopic
Moisture Balance Results: weight loss at 5% RH [3]: <0.1% weight loss at 5% RH,
Moisture Balance Results: total weight gain at 95% RH [3]: <0.1% total weight gain at 95% RH
XRPD Results after the moisture sorption/desorption experiment [3]: remained Form C
XRPD Results after slurry ([6]; ethanol, 16 days): remained the same form
SMILES: CC(=O)c1cc(C)cc(C)c1NC(=O)c1sccc1S(=O)(=O)Nc1onc(C)c1C [Form C, N-(2-acetyl-4,6-dimethylphenyl)-3-{[(3,4dimethyl-5-isoxazolyl)-amino]sulfonyl}-2-thiophenecarboxamide]
XRPD of remaining solid after the solubility experiment (form conversion) [1]: did not change form; also recorded: did not convert
